In the experiment the test system is MCL-1 protein expression. Nature of the experiment: Mouse xenograft pharmacodynamic study. Format: in vivo. The following applies: MV4-11 xenograft tumors, 48 hours post-treatment. How it is done: The in vivo pharmacodynamic activity of compound IB′ was determined in a MV4-11 mouse xenograft model of AML (FIG. 6A-B). Injection of 8×10^6 cells/mouse was followed by growth of tumors to approximately 100 mm^3. After tumors reached an appropriate size, mice were randomized into the following treatment groups: Vehicle, compound IB′ (2.5 mg/kg), compound IB′ (0.5 mg/kg), compound IB′ (0.1 mg/kg), compound IB′ (0.02 mg/kg). Mice were administered a single treatment dose and tumors were harvested 48 hours post-treatment. MCL-1 protein levels were assessed on harvested tumors using standard polyacrylamide gel electrophoresis and immunoblotting technique (FIG. 6A).

Consider `CN1CC[C@H](c2c(OP(=O)(O)O)cc(O)c3c(=O)cc(-c4ccccc4Cl)oc23)[C@H](O)C1` [Compound IB′, 2-(2-chlorophenyl)-5-hydroxy-8-(3-hydroxy-1-methylpiperidin-4-yl)-4-oxo-4H-chromen-7-yl dihydrogen phosphate], for which the “Reduction of MCL-1 Expression” value reads like this: (single dose 0.02 mg/kg) 0.0%; (single dose 0.1 mg/kg) 46%; (single dose 0.5 mg/kg) 61%; (single dose 2.5 mg/kg) 54%.
